# From ChEMBL document CHEMBL1201862, “PubChem BioAssay data set” (2004)
#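 Following 48 hours of exposure in 96-well plates, responses at five concentrations were used to interpolate endpoints linearly. GI50: concentration for 50% inhibition of growth.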 Activity calls are given as the source filed them. No stated cut-off is given here; in the data, active = GI50 up to about 1.1 µM and inactive = higher.
# Legend:
# Test in all cases: NCI-60 cell line screen, 48 h
# [1] = test system: 786-0
# [2] = test system: A498
# [3] = test system: A549
# [4] = test system: ACHN
# [5] = test system: CAKI-1
# [6] = test system: CCRF-CEM
# [7] = test system: COLO 205
# [8] = test system: DLD-1
# [9] = test system: DMS-114
# [10] = test system: DMS-273
# [11] = test system: EKVX
# [12] = test system: HCC 2998
# [13] = test system: HCT-116
# [14] = test system: HCT-15
# [15] = test system: HL-60
# [16] = test system: HOP-62
# [17] = test system: HOP-92
# [18] = test system: HT-29
# [19] = test system: IGROV-1
# [20] = test system: K562
# [21] = test system: KM-20L2
# [22] = test system: KM12
# [23] = test system: LOX IMVI
# [24] = test system: LXFL 529
# [25] = test system: M14
# [26] = test system: M19-MEL
# [27] = test system: Malme-3M
# [28] = test system: NCI-H226
# [29] = test system: NCI-H23
# [30] = test system: NCI-H460
# [31] = test system: NCI-H522
# [32] = test system: OVCAR-3
# [33] = test system: OVCAR-4
# [34] = test system: OVCAR-5
# [35] = test system: OVCAR-8
# [36] = test system: RPMI-8226
# [37] = test system: RXF 393
# [38] = test system: SF-268
# [39] = test system: SF-295
# [40] = test system: SF-539
# [41] = test system: SK-MEL-28
# [42] = test system: SK-MEL-5
# [43] = test system: SK-OV-3
# [44] = test system: SN12C
# [45] = test system: SNB-19
# [46] = test system: SNB-75
# [47] = test system: SNB-78
# [48] = test system: SR
# [49] = test system: SW-620
# [50] = test system: TK-10
# [51] = test system: U-251
# [52] = test system: UACC-257
# [53] = test system: UACC-62
# [54] = test system: UO-31
# [55] = test system: MOLT-4
# [56] = test system: SK-MEL-2
# [57] = test system: XF498
smiles,measurement,setting,value
c1ccc(-c2sc(-c3ccccc3)c3c2C(c2ccccc2)c2c(-c4ccccc4)sc(-c4ccccc4)c2C3c2ccccc2)cc1 (stereo unspecified),GI50,[1],> 100 µM (inactive)
same,GI50,[2],> 100 µM (inactive)
same,GI50,[3],> 100 µM (inactive)
same,GI50,[4],> 100 µM (inactive)
same,GI50,[5],> 100 µM (inactive)
same,GI50,[6],> 100 µM (inactive)
same,GI50,[7],> 100 µM (inactive)
same,GI50,[8],> 100 µM (inactive)
same,GI50,[9],> 100 µM (inactive)
same,GI50,[10],> 100 µM (inactive)
same,GI50,[11],> 100 µM (inactive)
same,GI50,[12],> 100 µM (inactive)
same,GI50,[13],> 100 µM (inactive)
same,GI50,[14],> 100 µM
same,GI50,[15],> 100 µM (inactive)
same,GI50,[16],> 100 µM (inactive)
same,GI50,[17],> 100 µM (inactive)
same,GI50,[18],> 100 µM (inactive)
same,GI50,[19],> 100 µM (inactive)
same,GI50,[20],> 100 µM (inactive)
same,GI50,[21],> 100 µM (inactive)
same,GI50,[22],> 100 µM (inactive)
same,GI50,[23],> 100 µM (inactive)
same,GI50,[24],> 100 µM (inactive)
same,GI50,[25],> 100 µM (inactive)
same,GI50,[26],> 100 µM (inactive)
same,GI50,[27],> 100 µM (inactive)
same,GI50,[28],> 100 µM (inactive)
same,GI50,[29],> 100 µM (inactive)
same,GI50,[30],> 100 µM (inactive)
same,GI50,[31],> 100 µM (inactive)
same,GI50,[32],> 100 µM (inactive)
same,GI50,[33],> 100 µM (inactive)
same,GI50,[34],> 100 µM (inactive)
same,GI50,[35],> 100 µM (inactive)
same,GI50,[36],> 100 µM (inactive)
same,GI50,[37],> 100 µM (inactive)
same,GI50,[38],> 100 µM (inactive)
same,GI50,[39],> 100 µM (inactive)
same,GI50,[40],> 100 µM (inactive)
same,GI50,[41],> 100 µM (inactive)
same,GI50,[42],> 100 µM (inactive)
same,GI50,[43],> 100 µM (inactive)
same,GI50,[44],> 100 µM (inactive)
same,GI50,[45],> 100 µM (inactive)
same,GI50,[46],> 100 µM (inactive)
same,GI50,[47],> 100 µM (inactive)
same,GI50,[48],> 100 µM (inactive)
same,GI50,[49],> 100 µM (inactive)
same,GI50,[50],> 100 µM (inactive)
same,GI50,[51],> 100 µM (inactive)
same,GI50,[52],> 100 µM (inactive)
same,GI50,[53],> 100 µM (inactive)
same,GI50,[54],> 100 µM (inactive)
COc1cccc(Cc2c3cc(OC)ccc3cc[n+]2C)c1,GI50,[1],> 100 µM (inactive)
same,GI50,[2],> 100 µM (inactive)
same,GI50,[3],> 100 µM (inactive)
same,GI50,[4],> 100 µM (inactive)
same,GI50,[5],> 100 µM (inactive)
same,GI50,[6],87.3 µM (inactive)
same,GI50,[8],> 100 µM (inactive)
same,GI50,[11],> 100 µM (inactive)
same,GI50,[12],87.9 µM (inactive)
same,GI50,[14],> 100 µM
same,GI50,[16],> 100 µM (inactive)
same,GI50,[18],30.3 µM (inactive)
same,GI50,[20],36 µM (inactive)
same,GI50,[21],65.5 µM (inactive)
same,GI50,[22],40.5 µM (inactive)
same,GI50,[24],36.4 µM (inactive)
same,GI50,[25],67.5 µM (inactive)
same,GI50,[55],> 100 µM (inactive)
same,GI50,[27],> 100 µM (inactive)
same,GI50,[29],26.6 µM (inactive)
same,GI50,[30],> 100 µM (inactive)
same,GI50,[31],22.9 µM (inactive)
same,GI50,[32],47.5 µM (inactive)
same,GI50,[33],58.5 µM (inactive)
same,GI50,[34],> 100 µM (inactive)
same,GI50,[35],73.6 µM (inactive)
same,GI50,[36],24.7 µM (inactive)
same,GI50,[38],36.2 µM (inactive)
same,GI50,[39],> 100 µM (inactive)
same,GI50,[41],33.9 µM (inactive)
same,GI50,[56],72.6 µM (inactive)
same,GI50,[42],22.4 µM (inactive)
same,GI50,[44],32.6 µM (inactive)
same,GI50,[45],43.1 µM (inactive)
same,GI50,[46],32.8 µM (inactive)
same,GI50,[47],> 100 µM (inactive)
same,GI50,[49],> 100 µM (inactive)
same,GI50,[50],> 100 µM (inactive)
same,GI50,[51],53.2 µM (inactive)
same,GI50,[52],21.4 µM (inactive)
same,GI50,[54],> 100 µM (inactive)
same,GI50,[57],12.4 µM (inactive)
